Test results taken from patent publication US20230201221A1, “USE OF TERPENOIDS IN THE TREATMENT OR PREVENTION OF FIBROTIC DISEASES” (ARJIL BIOTECH HOLDING COMPANY LIMITED, priority 2020, published 2023).

Key:
Format in all cases: in vivo
[1] = tested on: TNF-α, IL-1β, IL-6 and TGF-β; experiment: Cisplatin-induced renal injury in mice: serum pro-inflammatory cytokines by ELISA; details: extract at 1000 mg/kg; after cisplatin challenge
Method: TNF-α, IL-6, and IL-1β cytokines in serum The serum concentration of the pro-inflammatory cytokines (i.e. tumor necrosis factor-α (TNF-α), interleukin-6 (IL-6), and IL-1β) in serum are assessed with relevant enzyme-linked immunosorbent assay (ELISA) kits (Biosource International Inc., Sunnyvale, Calif., USA), based on the manufacturer's instructions.
Seven-to-eight-week-old male C57BL/6 mice are obtained from the BioLASCO Taiwan Co., Ltd. (Taipei, Taiwan). The animals are housed in Plexiglas cages at a constant temperature of 22±1° C. and a relative humidity of 55±5% on a 12 h dark-light cycle for at least 2 weeks before the experiment. Animals are provided food and water ad libitum. All experimental procedures are performed according to the guidelines of the Institutional Animal Ethics Committee, and the protocol is approved by the Committee for the Purpose of Control and Supervision of Experiments on Animals.
Renal fibrosis is induced via multiple injections of low-dose cisplatin. Intraperitoneal injections of cisplatin (5 mg/kg/injection; P4394, Sigma-Aldrich, St Louis, Mo.) are performed at 0, 1, and 3 weeks, for a total of 3 injections. Mice are sacrificed at 6 weeks after the first dose of cisplatin (n=6). […]

ICR mice [2] = experiment: Bleomycin-induced pulmonary fibrosis in mice: lung hydroxyproline content; details: extract 1.0 g/kg; AH, BH, DH 50 mg/kg; p<0.001
Method: (§1) Mice were divided into fifth groups with 5 animals per group according to body weight: control group, BLM group, BLM+DEX group (7.5 mg/kg), BLM+ACH dosage group (50 mg/kg), and BLM+ACM dosage group (25 mg/kg), BLM+ACH dosage group (50 mg/kg), and BLM+ACM dosage group (25 mg/kg) BLM+AH dosage group (50 mg/kg), and BLM+AM dosage group (25 mg/kg) BLM+BH dosage group (50 mg/kg), and BLM+BM dosage group (25 mg/kg) BLM+CH dosage group (50 mg/kg), and BLM+CM dosage group (25 mg/kg) BLM+DH dosage group (50 mg/kg), and BLM+DM dosage group (25 mg/kg) BLM+EH dosage group (50 mg/kg), and BLM+EM dosage group (25 mg/kg) BLM. Pulmonary fibrosis (PF) was established in mice via a single intratracheal administration of BLM at 7.5 mg/kg mg/kg body weight. Different doses of samples were intragastrically administered daily for 21 days after BLM injury, and DEX was used as the positive control. Control and model groups received an equal volume of vehicle (0.9% NaCl) using the same schedule and route of administration.
The contents of hydroxyproline were analyzed in lung tissue following the instruction of hydroxyproline assay kit (Biosource International Inc., Sunnyvale, Calif., USA). The pulmonary tissues of mice were ground and homogenized with 1 ml of 6 mol/L […] solution, hydrolyzed at 95° C. for 5 hours, and the pH value was adjusted to 6.0-6.8. According to the instructions, the corresponding reagents were added to the reaction system and mixed thoroughly and then incubated for 15 minutes at 60° C. After cooling, the supernatants were collected after centrifuging at 3500 rpm for 10 minutes. The absorbance value of the supernatant from the samples was measured at 550 nm by a spectrophotometer and calculated for the contents of hydroxyproline on each group.

ICR mice [3] = experiment: Bleomycin-induced pulmonary fibrosis in mice: body weight, lung weight, lung index
Method: Specific pathogen-free ICR mice (males) (body weights 18-22 g) were purchased from the BioLASCO Taiwan Co., Ltd. (Taipei, Taiwan). The animals were housed in Plexiglas cages at a constant temperature of 22±1° C. and a relative humidity of 55±5% on a 12 h dark-light cycle for at least 2 weeks before the experiment. Animals were provided food and water ad libitum. All experimental procedures were performed according to the guidelines of the Institutional Animal Ethics Committee, and the protocol was approved by the Committee for the Purpose of Control and Supervision of Experiments on Animals.
as §1
Mouse body weights were recorded daily. Mice were sacrificed on the 21th day using excess chloral hydrate hydrochloride anesthesia. Blood was obtained for ELISA analyses, and whole lungs were removed and weighed. The right lungs were fixed in 10% formalin, dehydrated, and embedded in paraffin. The left lungs were used to determine hydroxyproline. The pulmonary coefficient was calculated using the following equation: lung weight/body weight×100%
1. Group I: control; 2. Group II: mice received single intraperitoneal injection of BLM (7.5 mg/kg BW) 3. Group III: single dose (ACH, 0.5 g/kg) 4. Group IV: Single dose (ACM, 1.0 g/kg) 5. […] Group VII: purified AR101-DS2 (50 mg/kg) 8. Group VIII: purified AR101-DS2 (25 mg/kg) 7. Group VII: purified AR101-DS4 (50 mg/kg) 8. Group VIII: purified AR101-DS4 (25 mg/kg) 7. […] Group VII: purified ARH013-RA1 (50 mg/kg) 8. Group VIII: purified ARH013-RA1 (25 mg/kg)

[4] = 25 mg/kg intragastric daily for 21 days after BLM
[5] = 50 mg/kg intragastric daily for 21 days after BLM

`C=C1C(=O)O[C@H]2/C=C(\C)CC3C=C(CC/C=C(\C)CC[C@H]12)C(=O)O3` (stereo partly drawn) [AR100-DS1, Ovatodiolide] was tested, and the “NO, TNF-α, IL-1β, and IL-6 production in serum” value [1] was “improved NO, TNF-α, IL-1β, and IL-6 production”, the “hydroxyproline (HP) content in lung tissue” value (ICR mice [2]) was “reduced lung HP” and the Final body mass (ICR mice [3]; [4]) was 37.33 ± 0.25 g. The Pulmonary mass (ICR mice [3]; [4]) was 0.52 ± 0.02 g, the Final body mass (ICR mice [3]; [5]) was 39.12 ± 0.30 g and the Pulmonary mass (ICR mice [3]; [5]) was 0.39 ± 0.01 g.
